US12030896B2, “PIKfyve inhibitors” (Mayo Foundation for Medical Education and Research, priority 2018, dated 2024)

How the values were obtained:
[1] = system: Human lymphoma cell lines; assay: Killing of human lymphoma cell lines; assay type: cell-based; conditions: 72 hours
Description: Human lymphoma cell lines were incubated for 72 hours with various concentrations of the compound, and survival determined by cell counting or by ATP assay, as shown in FIG. 7. In the lymphoma experiments, RPMI media (Life Technologies) was used as the base formulation for “complete” media. Trypsin was not needed for these non-adherent cell lines. For the “cell-counting” data, cells were pipetted up and down to evenly disburse, then 10 μL of the suspension was counted using an Accuri C6 cytometer, using on forward and side scatter to gate on a viable population.

[2] = system: murine lymphoma cells; assay: Vacuolization seen by light microscopy; assay type: cell-based
Description: Vacuolization due to treatment with Example 1 compound was extremely rapid, becoming visible by light microscopy within 30 minutes or less.

[3] = target: PIKfyve (Homo sapiens, UniProt Q9Y2I7); assay: Kinase panel screen: inhibition of PIKfyve; assay type: binding; conditions: 50 nM
Description: No other kinase was blocked to that extent by 50 nM of Example 1, indicating its high degree of selectivity.
In contrast, 50 nM Apilimod inhibited two kinases to 1% or 10%, and 3 kinases to 35% of control. To examine non-specific binding at higher concentrations, Example 1, Example 3, and Apilimod were tested at 5000 nM. […] PIKfyve is represented at the bottom left of each dendrogram.

[4] = Solubility; assay type: physicochemical
Description: The compound has a molecular weight of 428.5. It is soluble in DMSO. In addition, solutions of at least 10 mg/ml can be prepared using a mixture of DMSO (10%), cremaphor (20%), and water (70%).

[5] = system: MPNST cells lines (S462, S462TY, 26T, T265, SNF96.2); assay: Cytotoxicity against MPNST cell lines; conditions: DMEM-based medium
Excerpt: For this reason, it was hypothesized that tumor cells that have activated RAS would have increased sensitivity to this compound. Malignant peripheral nerve sheath tumors (MPNSTs) arise in the population sporadically, and with very high frequency in patients with NF1 mutation. NF1 is a RAS suppressor, and therefore, tumors arising in the NF1-mutant background, have apriori activation of the RAS signaling pathway.

Chain of PIKfyve (Q9Y2I7 whole entry): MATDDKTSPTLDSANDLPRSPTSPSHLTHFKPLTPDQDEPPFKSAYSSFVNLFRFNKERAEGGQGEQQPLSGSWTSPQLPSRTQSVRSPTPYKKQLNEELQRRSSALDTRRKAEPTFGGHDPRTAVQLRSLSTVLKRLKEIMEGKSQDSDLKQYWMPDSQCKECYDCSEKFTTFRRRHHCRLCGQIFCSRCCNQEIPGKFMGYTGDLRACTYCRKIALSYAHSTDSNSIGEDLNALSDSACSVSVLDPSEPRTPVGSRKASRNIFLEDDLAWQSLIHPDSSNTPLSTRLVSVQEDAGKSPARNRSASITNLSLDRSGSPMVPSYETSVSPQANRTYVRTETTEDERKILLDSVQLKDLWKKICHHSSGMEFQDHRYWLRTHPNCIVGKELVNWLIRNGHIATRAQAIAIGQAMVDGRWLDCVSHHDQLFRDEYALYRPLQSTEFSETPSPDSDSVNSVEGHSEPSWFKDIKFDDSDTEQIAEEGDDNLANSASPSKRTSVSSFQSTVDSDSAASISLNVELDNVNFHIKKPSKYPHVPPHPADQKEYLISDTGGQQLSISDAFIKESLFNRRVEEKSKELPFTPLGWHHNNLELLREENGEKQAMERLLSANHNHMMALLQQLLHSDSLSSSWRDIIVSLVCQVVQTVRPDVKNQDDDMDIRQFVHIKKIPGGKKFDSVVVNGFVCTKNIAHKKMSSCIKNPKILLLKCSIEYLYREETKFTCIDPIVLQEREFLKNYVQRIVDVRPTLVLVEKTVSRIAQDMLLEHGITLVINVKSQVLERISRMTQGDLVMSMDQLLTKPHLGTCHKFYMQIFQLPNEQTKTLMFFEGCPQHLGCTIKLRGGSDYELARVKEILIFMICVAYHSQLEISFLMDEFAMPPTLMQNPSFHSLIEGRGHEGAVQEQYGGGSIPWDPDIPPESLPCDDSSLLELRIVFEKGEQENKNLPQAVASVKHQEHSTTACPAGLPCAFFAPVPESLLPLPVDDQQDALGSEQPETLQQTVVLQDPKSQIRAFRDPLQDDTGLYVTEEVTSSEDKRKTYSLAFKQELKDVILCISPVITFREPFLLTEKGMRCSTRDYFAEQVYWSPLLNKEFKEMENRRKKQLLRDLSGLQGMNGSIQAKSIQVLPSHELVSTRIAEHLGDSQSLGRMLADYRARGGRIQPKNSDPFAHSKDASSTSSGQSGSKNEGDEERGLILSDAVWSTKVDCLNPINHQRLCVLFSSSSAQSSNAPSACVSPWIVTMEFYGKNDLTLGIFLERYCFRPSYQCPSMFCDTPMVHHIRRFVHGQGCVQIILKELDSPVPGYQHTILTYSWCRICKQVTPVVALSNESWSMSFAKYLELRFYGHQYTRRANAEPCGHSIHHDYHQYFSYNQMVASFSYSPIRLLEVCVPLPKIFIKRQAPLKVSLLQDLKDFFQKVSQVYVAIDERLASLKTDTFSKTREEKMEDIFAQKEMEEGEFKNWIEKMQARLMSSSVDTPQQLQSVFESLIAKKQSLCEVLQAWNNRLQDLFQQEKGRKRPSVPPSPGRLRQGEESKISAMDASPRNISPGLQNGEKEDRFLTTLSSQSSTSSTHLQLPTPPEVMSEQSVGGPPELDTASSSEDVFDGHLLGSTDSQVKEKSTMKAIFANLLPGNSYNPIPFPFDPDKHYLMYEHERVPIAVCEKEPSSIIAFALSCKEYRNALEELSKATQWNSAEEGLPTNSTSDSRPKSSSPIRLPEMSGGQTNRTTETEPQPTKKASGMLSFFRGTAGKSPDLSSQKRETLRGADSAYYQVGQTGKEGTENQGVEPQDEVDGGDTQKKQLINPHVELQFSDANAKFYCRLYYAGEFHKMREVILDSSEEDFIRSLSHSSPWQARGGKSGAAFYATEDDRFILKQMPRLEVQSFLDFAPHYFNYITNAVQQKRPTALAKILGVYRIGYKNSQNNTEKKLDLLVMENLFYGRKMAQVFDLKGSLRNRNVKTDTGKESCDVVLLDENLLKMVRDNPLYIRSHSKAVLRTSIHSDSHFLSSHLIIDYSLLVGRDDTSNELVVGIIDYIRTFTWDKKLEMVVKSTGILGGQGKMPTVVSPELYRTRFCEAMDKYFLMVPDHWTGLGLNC

| Compound | cell killing [1] | time until vacuolization visible by light microscopy [2] [min] | inhibition at 0.05 µM [3] [%] | solubility in DMSO ([4]; DMSO) | concentration of solutions that can be prepared ([4]; DMSO (10%), cremaphor (20%), and water (70%)) | sensitivity to compound-induced death [5] |
| --- | --- | --- | --- | --- | --- | --- |
| Cc1ccc(Nc2nc(N/N=C/c3c[nH]c4ccccc34)nc(N3CCOCC3)n2)cc1 [Example 1, (E)-4-(2-((1H-indol-3-yl)methylene)hydrazinyl)-6-morpholino-N-(p-tolyl)-1,3,5-triazin-2-amine] | killing | ≤ 30 | > 99 | soluble | at least 10 mg/ml |  |
| Cc1ccc(Nc2nc(N/N=C/c3c[nH]c4ccccc34)cc(N3CCOCC3)n2)cc1 [Example 3, (E)-4-(2-((1H-indol-3-yl)methylene)hydrazinyl)-6-morpholino-N-(p-tolyl)pyrimidin-2-amine] |  |  |  |  |  | highly sensitive |
